Laboratory results from EP0393604B1, “6,11-Dihydro-5H-pyrido(2,3-b)(1,5,)benzodiazepin-5-ones and thiones and their use in the prevention or treatment of AIDS” (priority 1989, dated 1990).
Where two headings read alike, the source gives them in different places.

What was measured:
[1] = MTT Assay for Cellular Cytotoxicity; format: cell-based, human; details: human, H9 cells, five days incubation, read-out: Cytotoxity Assay (EC50)
Description: In order to roughly assess the cytotoxicity of the compounds of formula 1, several such compounds were tested in the MTT Cellular Cytotoxicity Assay described below.
The MTT [3-(4,5-dimethylthiazol-2yl)-2,5-diphenyl tetrazolium bromide) assay is based on cleavage of tetrazolium bromide by metabolically active cells, resulting in a highly quantitative blue color. This assay has been previously described (1) but has been optimized for the purposes of the testing reported herein.
Cells (100µl) are plated in microtest plate wells at a concentration of 10^5 cells per ml in the presence of varying concentrations of inhibitor. The cells are incubated at 37°C in a humidified CO2 incubator. […] After 4 hours additional incubation at 37°C, 60µl of Triton-X is added to each well and thoroughly mixed to aid the solubilization of the crystals. Absolute ethanol (5µl) is added to each well and the resulting mixture is incubated for 30 minutes at 60°C and immediately read on a plate reader (Dynatech) at a wavelength of 570nm.
Data from this assay are used to generate a nonlinear regression analysis, which yields the EC50.

HIV-1 RT = target: T1, HIV-1 RT (Human immunodeficiency virus type 1 group M subtype B, UniProt P03367); assay: Reverse Transcriptase (RT) Assay: inhibition of RNA-dependent DNA polymerase activity; format: biochemical; details: for inhibition at 10 µg/mL: read-out: RT Inhibition % @ 10µg/ml
T1 construct: Reverse transcriptase enzyme from the LAV strain of Human Immunodeficiency Virus (HIV-1) (1) was isolated from the bacterial strain JM109; made in house; host or cells: E. coli JM109, clone pBRTprt1+ in vector pIBI21, lac promoter, IPTG induction
Description: Utilizing the Reverse Transcriptase (RT) Assay descibed below, compounds can be tested for their ability to inhibit the RNA-dependent DNA polymerase activity of HIV-1 RT. Certain specific compounds of formula I described in the Examples which appear below, were so tested. The above-described compounds of formula IA were also so tested.
Among the enzymes for which Human Immunodeficiency Virus (HIV-1) encodes is a reverse transcriptase (1), so-named because it transcribes a DNA copy from an RNA template. This activity can be quantitatively measured in a cell-free enzyme assay which has been previously described (2), and is based upon the observation that reverse transcriptase is able to use a synthetic template [poly r(C) primed with oligo d(G)] to transcribe a radio-labelled, acid-precipitable DNA strand utilizing ^3H-dGTP as a substrate.
Reverse transcriptase enzyme from the LAV strain of Human Immunodeficiency Virus (HIV-1) (1) was isolated from the bacterial strain JM109 (3) expressing the DNA clone pBRTprt1+ (2) which is under the control of the lac promoter in the expression vector pIBI21 (4). An overnight culture grown in 2XYT medium (37°C, 225 rpm) (5) supplemented with 100 µg/ml ampicillin for positive selection is inoculated at a 1:40 dilution into M9 medium supplemented with 10µg/ml thiamine, 0.5% casamino acids, and 50 µg/ml ampicillin (5). The culture is incubated (37°C, 225 rpm) until it reaches an OD540 of 0.3-0.4. At that time the repressor inhibitor IPTG (isopropyl b-D-thiogalactopyranoside) is added to 0.5mM and the mixture is incubated for 2 additional hours. Bacteria are pelleted, resuspended in a 50mM Tris, 0.6mM EDTA, 0.375M NaCl buffer and digested by the addition of lysozyme (1mg/ml) for 30 minutes on ice. The cells are lysed by the addition of 0.2% NP-40 and brought to 1M NaCl.
After removal of the insoluble debris by centrifugation, the protein is precipitated by the addition of 3 volumes of water-saturated ammonium sulfate. The enzyme is pelleted, resuspended in RT buffer (50mM Tris pH 7.5. 1mM EDTA, 5mM DTT, 0.1% NP-40, 0.1M NaCl, and 50% glycerol), and stored at -70°C for further use.
The 2X concentrated stock reaction mixture is aliquoted and stored at -20°C. The mixture is stable and thawed for use in each assay. This enzyme assay has been adapted to a 96 well microtiter plate system, and has been previously described (6). Tris buffer (50 mM, pH 7.4), vehicle (solvent diluted to match the compound dilution), or compounds in vehicle are dispensed into 96-well microtiter plates (10µl/well: 3 wells/compound). The HIV-1 RT enzyme is thawed and diluted in 50mM Tris pH 7.4 so that fifteen µl of diluted enzyme contain 0.001 Unit (one unit is that amount of enzyme to transform 1 micromole of substrate per minute at 25°C) and 15µl are dispensed per well. Twenty µl of 0.12 - 0.5M EDTA are added to the first three wells of the microtiter plate. EDTA chelates the Mg^++ present and prevents reverse transcription. This group serves as background polymerization which is subtracted from all other groups. Twenty-five ul of the 2X reaction mixture are added to all wells and the assay is allowed to incubate at room temperature for 60 minutes. The assay is terminated by precipitating the DNA in each well with 50µl of trichloracetic acid (TCA) (10% w/v) in sodium pyrophosphate (1% w/v). The microtiter plate is incubated for 15 minutes at 4°C and the precipitate is fixed onto #30 glass fiber paper (Schleicher & Schuell) using a Skatron semi-automatic harvester. The filters are then washed with additional TCA (5%) containing sodium pyrophosphate (1%), rinsed with aqueous ethanol (70%), dried, and transferred to scintillation vials (6). Each vial receives 2 mls of scintillation cocktail and is counted in a Beckman beta counter. […]

[2] = system: HTLV-IIIB strain of HIV-1; assay: Human T-Cell Culture Assay (syncytia formation in c8166 cells); format: cell-based; details: Human immunodeficiency virus 1, IIIB, 96 h, syncytia four days after virus challenge
Description: In order to confirm that compounds which are active in the RT Assay also have the ability to inhibit HIV-1 replication in a living system, several compounds of formula I were also tested in the Human T-Cell Culture Assay described below.
Formation of syncytia is a feature of in vitro cultures of CD4+ T-cells infected with HIV-1. In this assay, T-cells are treated with a putative replication inhibiting compound and then infected with HIV-1. After incubation the culture is checked for the formation of syncytia. The absence or reduction is the number of syncytia is used as a measure of the test compound's ability to inhibit HIV replication.
The target cells, designated c8166, are a subclone of human lymphoma cells of T-cell origin and are established at an initial density of 5x10^4 per 100 ul in RPMI 1640 (+ 10% fetal bovine serum) culture medium in 96 well flat bottom plates. A selected amount of test compound, dissolved in DMSO is included. After 24 hours, 50-100 TCID50's (the dose that results in induced effect in 50% of test cultures) of the HTLV-IIIB strain of HIV-1 (2) are innoculated into each culture. Control cultures receive compound or virus only. Four days after virus challenge, cultures are visually examined for the frequency and distribution of virus-induced giant cell syncytia. The percent inhibition by the test compound is determined by comparison with control values. Confirmation of the presence or absence of virus replication is accomplished by harvesting the cell free culture fluids from all experimental groups to determine the present or absence of infectious progeny through the induction of syncytia formation in secondary human T-cell cultures after 3 days.

[3] = 10µg/ml, Table I, compounds of formula I
[4] = 10µg/ml, Table II, known compounds of formula IA

Row | SMILES | inhibition at 10 µg/mL (HIV-1 RT; [3]) [%] | inhibition at 10 µg/mL (HIV-1 RT; [4]) [%] | also measured
1 | CCN1c2ccccc2N(C)C(=O)c2cccnc21 [Example 2, 6,11-Dihydro-11-ethyl-6-methyl-5H-pyrido[2,3-b][1,5]benzodiazepin-5-one] | 97 | – | CC50 at 120 h [1]: 80 µM; inhibition at 4 µM ([2]; @ 4µM): 100%
2 | CN1C(=O)c2cccnc2N(C)c2cc(C(F)(F)F)ccc21 [Example 4, 6,11-Dihydro-6,11-dimethyl-9-(trifluoromethyl)-5H-pyrido[2,3-b][1,5]benzodiazepin-5-one] | 79 | – | CC50 at 120 h [1]: 49 µM
3 | CC(C)N1c2ccccc2N(C)C(=O)c2cccnc21 [Example 5, 6,11-Dihydro-6-methyl-11-methylethyl-5H-pyrido[2,3-b][1,5]benzodiazepin-5-one] | 94 | – | CC50 at 120 h [1]: 50 µM; inhibition at 19 µM ([2]; @19µM): 100%
4 | CN1C(=O)c2cccnc2N(C)c2ccc(Cl)cc21 [Example 8, 8-Chloro-6,11-dihydro-6,11-dimethyl-5H-pyrido[2,3-b][1,5]benzodiazepin-5-one] | 55 | – | CC50 at 120 h [1]: 37 µM
5 | Cc1cc2c(cc1C)N(C)c1ncccc1C(=O)N2C [Example 9, 6,11-Dihydro-6,8,9,11-tetramethyl-5H-pyrido[2,3-b][1,5]-benzodiazepin-5-one] | 92 | – | CC50 at 120 h [1]: 4 µM
6 | Cc1ccc2c(n1)N(C)c1cc(C)c(C)cc1N(C)C2=O [Example 15, 6,11-Dihydro-2,6,8,9,11-pentamethyl-5H-pyrido[2,3-b][1,5]benzodiazepin-5-one] | 39 | – | CC50 at 120 h ([1]; unit inferred): 18 µM
7 | CC(=O)N1c2cc(C)c(C)cc2N(C)C(=O)c2cccnc21 [Example 19, 11-Acetyl-6,11-dihydro-6,8,9-trimethyl-5H-pyrido[2,3-b][1,5]benzodiazepin-5-one] | 90 | – | CC50 at 120 h ([1]; unit inferred): 85 µM
8 | CCN1c2ccccc2N(C)C(=S)c2cccnc21 [Example 22, 6,11-Dihydro-11-ethyl-6-methyl-5H-pyrido[2,3-b][1,5]benzodiazepin-5-thione] | – | – | inhibition at 10 µg/mL (HIV-1 RT): 100%; inhibition at 3 µM ([2]; @3µM): 100%
9 | CCN1c2cc(C)c(C)cc2N(C)C(=O)c2cccnc21 [Example 29, 6,11-Dihydro-11-ethyl-6,8,9-trimethyl-5H-pyrido[2,3-b][1,5]benzodiazepin-5-one] | 99 | – | –
10 | CCN1c2ccc(C(=O)OC)cc2N(C)C(=O)c2cccnc21 [Example 30, 6,11-Dihydro-8-methoxycarbonyl-11-ethyl-6-methyl-5H-pyrido[2,3-b][1,5] benzodiazepin-5-one] | 94 | – | –
11 | CCN1C(=O)c2cccnc2Nc2cccc(C)c21 [Example 31, 6,11-Dihydro-6-ethyl-7-methyl-5H-pyrido[2,3-b][1,5]benzodiazepin-5-one] | 92 | – | –
12 | Cc1cccc2c1NC(=O)c1cccnc1N2 [Example 32, 6,11-Dihydro-7-methyl-5H-pyrido[2,3-b][1,5]benzodiazepin-5-one] | 51 | – | –
13 | CN1C(=O)c2cccnc2N(CCF)c2ccccc21 [Example 33, 6,11-Dihydro-11-(2-fluoroethyl)-6-methyl-5H-pyrido[2,3-6][1,5]benzodiazepin-5-one] | – | – | inhibition at 10 µg/mL (HIV-1 RT): 97%
14 | CCN1c2ccccc2N(CF)C(=O)c2cccnc21 [Example 34, 6,11-Dihydro-11-ethyl-6-fluoromethyl-5H-pyrido-[2,3-b][1,5]benzodiazepin-5-one] | 85 | – | –
15 | Cc1ccc2c(c1)N(C)C(=O)c1c(C)cc(C)nc1N2 [Formula IA a, 2,4,6,8-tetramethyl-6,11-dihydro-5H-pyrido[2,3-b][1,5]benzodiazepin-5-one] | – | 58 | –
16 | CN1C(=O)c2cccnc2Nc2ccccc21 [Formula IA b, 6-methyl-6,11-dihydro-5H-pyrido[2,3-b][1,5]benzodiazepin-5-one] | – | 43 | –
17 | O=C1Nc2ccccc2Nc2ncccc21 [Formula IA c, 6,11-dihydro-5H-pyrido[2,3-b][1,5]benzodiazepin-5-one] | – | 22 | –
18 | CCN1C(=O)c2cccnc2Nc2ccccc21 [Formula IA d, 6-ethy-6,11-dihydro-5H-pyrido[2,3-b][1,5]benzodiazepin-5-one] | – | 69 | –
19 | Cc1cc2c(cc1C)N(C)C(=O)c1cccnc1N2 [Formula IA e, 6,8,9-trimethyl-6,11-dihydro-5H-pyrido[2,3-b][1,5]benzodiazepin-5-one] | – | – | RT Inhibition % @ 10µg/ml (HIV-1 RT; [4]): 65%
20 | CCN1C(=O)c2cccnc2Nc2cc(C)c(C)cc21 [Formula IA f, 6-ethyl-8,9-dimethyl-6,11-dihydro-5H-pyrido[2,3-b][1,5]benzodiazepin-5-one] | – | 95 | –
21 | CC(C)CN1C(=O)c2cccnc2Nc2ccccc21 [Formula IA g, 6-isobutyl-6,11-dihydro-5H-pyrido[2,3-b][1,5]benzodiazepin-5-one] | – | 33 | –
22 | CCN1C(=O)c2cccnc2Nc2cc(C)ccc21 [Formula IA h, 6-ethyl-9-methyl-6,11-dihydro-5H-pyrido[2,3-b][1,5]benzodiazepin-5-one] | – | 78 | –
